Measured values reported in patent US20030143633A1, “Factors participating in degranulation of mast cells, dnas encoding the same, method of screening of these factors and the inhibitors” (priority 2000, published 2003).

Columns and labels:
[1] = system: interaction between mG#102 and mA#10283; experiment: Two-hybrid recombinant yeast #102 strain growth in histidine defective medium; type: cell-based, S. cerevisiae; details: histidine defective SD medium
VT strain [2] = experiment: Two-hybrid positive control recombinant yeast VT strain growth (nonspecific effect control); type: cell-based, S. cerevisiae
[3] = system: interaction between mG#102 and mA#10283; experiment: Two-hybrid recombinant yeast #102 strain growth in histidine defective medium; type: cell-based, S. cerevisiae; details: for specific suppression of #102 strain growth (in words): compared with VT strain; for Suppression (% control) of growth of yeast strain, #102 strain: turbidity 590 nm, 18-20 hr
Description: (§1) Two expression vectors respectively incorporating mG#102 in pAS2-1 vector and mA#10283 in pACT2 vector were introduced into S. cerevisiae CG1945 strain to give a recombinant yeast #102 strain (see Example 3). As a control, recombinant yeast VT strain into which plasmid for positive control (pVA3-1, pTD1-1) of MATCHMAKER Two-Hybrid System 2 had been introduced was prepared. The culture media of #102 strain and VT strain that reached confluent by shake culture overnight at 30° C. in an SD medium supplemented with histidine were diluted 200-fold with a fresh histidine defective SD medium (containing 1 mM 3-AT) and dispensed to a 96 well plate by 0.09 ml/well. A PBS solution containing a compound whose effect is desired to be examined was added to each well, PBS was added to the well of 100% control, and 1M 3-AT-containing PBS solution was added to the well of 0% control respectively in a volume of 0.01 ml/well and mixed by a plate shaker MicroMixer E-36 (manufactured by TAITEC). Then, after static culture at 30° C. for 18-20 hr, culture media were suspended in a plate shaker, and turbidity (absorbance at 590 nm) was measured with a 96 well plate spectrophotometer Multiskan BICHROMATIC (manufactured by Labsystems) The data of the turbidity measured were evaluated on conversion to % control based on the turbidity data of 100% control and 0% control. When a common effect appears between the #102 strain and the VT strain, it was considered a nonspecific effect on the two-hybrid system rather than an effect on the interaction between mG#102 and mA#10283.
(§2) Using the system shown in Example 7, 0.09 ml each of #102 strain yeast or VT strain yeast (control) was placed in each well of a 96 well plate, and a PBS solution containing a particular compound which is unknown as to its effect on the interaction between mG#102 and mA#10283 was added by 0.01 ml, which was followed by culture at 30° C. for 18-20 hr. Then, the culture medium was suspended in a plate shaker and the turbidity (absorbance at 590 nm) was measured with a 96 well plate absorbance meter. The turbidity of the well to which PBS solution without the compound was added was taken as 100% control and the turbidity of the well to which PBS solution containing 3-AT (final concentration 100 mM) instead of the compound was added was taken as 0% control, and the effect of the compound was evaluated by conversion to percentage.

VT strain [4] = experiment: Two-hybrid positive control recombinant yeast VT strain growth (nonspecific effect control); type: cell-based, S. cerevisiae; details: turbidity 590 nm, 18-20 hr
Description: as §1, §2

[5] = system: mouse bone marrow-derived mast cells (BMMC); experiment: IgE/DNP-HSA antigen-induced degranulation of BMMC (hexosaminidase release); type: cell-based; details: for Suppression (% control) of degranulation of mast cell: fluorescence of control group without compound = 100%
Description: BMMC prepared by the method shown in Example 1 was suspended in 10% FBS-containing RPMI at a concentration of 3×10^6/ml. To this BMMC was added a mouse monoclonal anti-DNP IgE antibody (manufactured by YAMASA) at 3 μg/ml, and the mixture was stood at room temperature for 30 min. Then, BMMC treated with an IgE antibody was washed with buffer A (133 mM NaCl, 5 mM KCl, 0.9 mM NaH2PO4, 8 mM glucose, 1 mg/ml BSA, 0.01 mM CaCl2, 20 mM HEPES, pH 7.4) and suspended in buffer A containing 1 mM CaCl2 at a concentration of 3×10^6/ml. This BMMC suspension (0.1 ml/well) was added in a 96 well multiplate and a solution of the compound to be examined (0.05 ml/well) and a DNP-HSA (manufactured by Sigma) solution (40 ng/ml, 0.05 ml/well) as an antigen were added. After standing at room temperature for 30 min, the mixture was centrifuged at 1000 rpm for 5 min and the supernatant was recovered for the 96 well multiplate by 0.05 ml/well. To this supernatant was added a 4-methylumbelliferyl-2-acetamide-2-deoxy-β-D-glucopyranoside (manufactured by Funakoshi Co., Ltd., substrate of hexosaminidase) solution (1 mM; in 0.2 M citrate buffer (pH 4.5)) at 0.05 ml/well. After standing at 37° C. for 90 min, 1M Tris solution (0.15 ml) was added to stop the reaction, and the amount of fluorescence in each well was measured by fluoroscan (manufactured by Labo Systems). The suppressive effect of the compound on the degranulation of BMMC was calculated based on the amount of fluorescence in the control group free of addition of the compound as 100%. As a control compound, tranilast was used.

BMMC = BMMC digitonin degranulation system (histamine release); type: cell-based, mouse; details: protein added to digitonin-permeabilised BMMC, CaCl2 stimulation, histamine RIA
Description: The recombinant protein was added to a BMMC digitonin degranulation system to examine the effect. BMMC was washed twice with a buffer having the following composition to give a suspension at 2×10^6 cells/ml and dispensed to a 96-well U-bottom plate by 0.05 ml/well. Then, mG#101 or mG#102 recombinant protein (0.05 ml/well) was added. Furthermore, 4.5 μM digitonin was added by 0.05 ml/well and the plate was stood at room temperature for 5 min. Thereafter 4 mM CaCl2 was added by 0.05 ml/well and the plate was stood at room temperature for 10 min. After standing, the concentration of histamine liberated in the supernatant was determined by a histamine RIA kit (Eiken Chemical Co., Ltd.). buffer composition:
The recombinant protein was added to the digitonin degranulation system (see Example 5) and the effect was examined.

[6] = compound concentration 0.3 μg/ml
[7] = compound concentration 10 μg/ml
[8] = compound concentration 30 μg/ml

Molecule | Suppression (% control) of growth of yeast strain, VT strain (VT strain [4]; compound concentration 1 μg/ml) [% control] | Suppression (% control) of growth of yeast strain, VT strain (VT strain [4]; compound concentration 3 μg/ml) [% control] | Suppression (% control) of growth of yeast strain, VT strain (VT strain [4]; [7]) [% control] | specific suppression of #102 strain growth (in words) [3] | Suppression (% control) of growth of yeast strain, #102 strain ([3]; compound concentration 1 μg/ml) [% control] | Suppression (% control) of growth of yeast strain, #102 strain ([3]; compound concentration 3 μg/ml) [% control] | Suppression (% control) of growth of yeast strain, #102 strain [3, 7] [% control] | Suppression (% control) of degranulation of mast cell ([5]; concentration 1 μg/ml) [% control] | Suppression (% control) of degranulation of mast cell ([5]; concentration 3 μg/ml) [% control] | Suppression (% control) of degranulation of mast cell ([5]; concentration 10 μg/ml) [% control] | Suppression (% control) of degranulation of mast cell ([5]; concentration 30 μg/ml) [% control] | Suppression (% control) of degranulation of mast cell ([5]; concentration 100 μg/ml) [% control] | effect of recombinant protein on degranulation (in words) (BMMC) | further results
Nc1nc[nH]n1 [Formula 3-AT, 3-amino-1,2,4-triazole] |  |  |  |  |  |  |  |  |  |  |  |  |  | concentration of 3-AT wherein the recombinant yeast strain grows in a reporter gene (histidine synthase)-dependent manner [1]: 1 to 10 mM; growth of recombinant yeast strain with 100 mM 3-AT (in words) (VT strain [2]; 100 mM 3-AT): neither recombinant yeast strain could grow; concentration of 3-AT wherein the recombinant yeast strain grows in a reporter gene (histidine synthase)-dependent manner (VT strain [2]; histidine defective SD medium): 1 to 10 mM; growth of recombinant yeast strain with 100 mM 3-AT (in words) ([3]; #102 strain, 100 mM 3-AT): neither recombinant yeast strain could grow
CC(C)=NNc1nc(-c2ccc(-c3ccccc3)cc2)cs1 [Formula [III], acetone-4-(4-phenyl)phenyl-1,3-thiazol-2-yl-hydrazone] | 85 | 77 | 63 | specifically suppressed #1022 strain in a dose-dependent manner | 57 | 4 | 1 | 102 | 87 | 39 | 20 | 6 |  | Suppression (% control) of growth of yeast strain, VT strain (VT strain [4]; [6]): 99 % control; Suppression (% control) of growth of yeast strain, #102 strain [3, 6]: 99 % control; suppression of degranulation of mast cells (in words) [5]: suppressed degranulation of mast cells in a dose-dependent manner
COc1ccc(/C=C/C(=O)Nc2ccccc2C(=O)O)cc1OC [tranilast, reference compound] |  |  |  |  |  |  |  | 96 | 90 | 78 | 52 | 22 |  | 
O=C(N/N=C/c1ccc([N+](=O)[O-])o1)c1ccccc1Br [Formula [IV], 5-nitro-2-furaldehyde-2-brombenzoylhydrazne] | 102 | 102 | 98 | specifically suppressed #1022 strain in a dose-dependent manner | 99 | 99 | 36 |  |  |  |  |  |  | Suppression (% control) of growth of yeast strain, VT strain (VT strain [4]; [8]): 63 % control; Suppression (% control) of growth of yeast strain, #102 strain [3, 8]: −2 % control
mG#101: recombinant mouse first Rab protein, SEQ ID NO: 1 (protein, Mus musculus or Homo sapiens; (45) Ala or Val.) MLLGDSGVGKTCFLIQFKDGAFLSGTFIATVGIDFRNKVVTVDGXRVKLQIWDTAGQERFRSVTHAYYRDAQALLLLYDITNKSSFDNIRAWLTEIHEYAQRDVVIMLLGNKADXSSERVIRSEDGETLAREYGVPFXETSAKTGMNVELAFLAIAKELKYRAGXQXDEPSFQIRDYVESQKKRSSCCSFV |  |  |  |  |  |  |  |  |  |  |  |  | inhibited degranulation in a concentration dependent manner | 
mG#102: recombinant mouse second Rab protein, SEQ ID NO: 4 (protein, Mus musculus or Homo sapiens; (113) Thr or Ser.) MQTPHKEHLYKLLVIGDLGVGKTSIIKRYVHQNFSSHYRATIGVDFALKVLHWDPETVVRLQLWDIAGQERFGNMTRVYYREAMGAFIVFDVTRPATFEAVAKWKNDLDSKLXLPNGKPVSVVLLANKCDQGKDVLMNNGLKMDQFCKEHGFVGWFETSAKENINIDEASRCLVKHILANECDLXESIEPDXVKPHLTSXKVXSCSGCAKS |  |  |  |  |  |  |  |  |  |  |  |  | inhibited degranulation in a concentration dependent manner | 
